Measured values: patent US11452717B2, “Small molecule activators of nicotinamide phosphoribosyltransferase (NAMPT) and uses thereof” (Sanford Burnham Prebys Medical Discovery Institute, priority 2017, dated 2022)
Blank lines part the entries; values can stand above or below the compound they belong to.

Target: NAMPT enzyme (Homo sapiens (Human), UniProt P43490)
Assay: Enzyme Assay and NMN Detection (NAMPT reaction, fluorescence detection of NMN)
Assay type: biochemical
Details: NAMPT activation, NMN formation
Outline: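 NMN formed was read at ex380/em460 after acetophenone/KOH derivatization and formic acid addition, using a same-day calibration curve. Final conditions: NAMPT 16 nM, nicotinamide 5 uM, PRPP 6.25 uM, ATP 120 uM, pyrophosphatase 0.04 U/ml, pH 7.5 HEPES buffer with MgCl2 and TCEP, 2 h at room temperature.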

Chain of NAMPT enzyme (P43490 whole entry, species assumed): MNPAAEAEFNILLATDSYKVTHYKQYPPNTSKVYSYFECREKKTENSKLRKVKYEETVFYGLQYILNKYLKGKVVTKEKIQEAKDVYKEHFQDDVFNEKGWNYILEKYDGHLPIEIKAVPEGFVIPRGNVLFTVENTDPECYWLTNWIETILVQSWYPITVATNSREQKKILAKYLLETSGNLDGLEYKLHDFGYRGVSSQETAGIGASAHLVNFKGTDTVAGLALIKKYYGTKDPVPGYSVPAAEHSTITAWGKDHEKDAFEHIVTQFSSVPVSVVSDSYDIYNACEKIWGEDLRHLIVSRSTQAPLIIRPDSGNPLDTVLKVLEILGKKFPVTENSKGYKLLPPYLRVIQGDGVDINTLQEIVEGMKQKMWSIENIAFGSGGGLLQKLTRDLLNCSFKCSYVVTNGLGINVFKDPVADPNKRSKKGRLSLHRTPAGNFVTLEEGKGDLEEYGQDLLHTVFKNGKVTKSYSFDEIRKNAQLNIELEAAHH

SMILES: O=C(NCc1ccncc1)Nc1ccc(S(=O)(=O)Nc2nccs2)cc1 [4-(3-Pyridin-4-ylmethyl-ureido)-N-thiazol-2-yl-benzenesulfonamide]
- EC50 (Table B-2): 100 to 2000 nM

SMILES: O=C(NCc1ccncc1)Nc1ccc(S(=O)(=O)Nc2ccccc2Cl)cc1 [4-(3-pyridin-4-ylmethyl-ureido)-N-(2-chloro-phenyl)-benzenesulfonamide]
- EC50 (Table B-2): 100 to 2000 nM

SMILES: O=C(NCc1ccncc1)Nc1ccc(S(=O)(=O)Nc2cccc(Cl)c2)cc1 [4-(3-pyridin-4-ylmethyl-ureido)-N-(3-chloro-phenyl)-benzenesulfonamide]
- EC50 (Table B-2): 100 to 2000 nM

SMILES: O=C(NCc1ccncc1)Nc1ccc(S(=O)(=O)Nc2ccc(Cl)cc2)cc1 [4-(3-pyridin-4-ylmethyl-ureido)-N-(4-chloro-phenyl)-benzenesulfonamide]
- EC50 (Table B-2): 100 to 2000 nM

SMILES: O=C(NCc1ccncc1)Nc1ccc(NS(=O)(=O)c2ccc(Cl)cc2)cc1 [4-Chloro-N-[4-(3-pyridin-4-ylmethyl-ureido)-phenyl]-benzenesulfonamide]
- EC50 (Table B-2): < 100 nM

SMILES: COc1ccc(S(=O)(=O)Nc2ccc(NC(=O)NCc3ccncc3)cc2)cc1 [4-Methoxy-N-[4-(3-pyridin-4-ylmethyl-ureido)-phenyl]-benzenesulfonamide]
- EC50 (Table B-2): 100 to 2000 nM

SMILES: O=C(NCc1cn[nH]c1)Nc1ccc(S(=O)(=O)Nc2ccccn2)cc1 [4-[3-(1H-Pyrazol-4-ylmethyl)-ureido]-N-pyridin-2-yl-benzenesulfonamide]
- EC50 (Table B-1): 2000 to 5000 nM

SMILES: COC(=O)c1ccc(CNS(=O)(=O)c2ccc(NC(=O)NCc3ccncc3)cc2)cc1 [4-{[4-(3-Pyridin-4-ylmethyl-ureido)-benzenesulfonylamino]-methyl}-benzoic acid methyl ester]
- EC50 (Table B-2): 100 to 2000 nM

SMILES: NC(=O)c1ccc(NC(=O)NCc2ccncc2)cn1 [5-(3-(pyridin-4-ylmethyl)ureido)picolinamide]
- EC50 (Table B-3): 2000 to 5000 nM

SMILES: O=C(NCc1ccncc1)Nc1ccc(NS(=O)(=O)Cc2ccccc2Br)cc1 [C-(2-Bromo-phenyl)-N-[4-(3-pyridin-4-ylmethyl-ureido)-phenyl]-methanesulfonamide]
- EC50 (Table B-6): < 100 nM

SMILES: O=C(NCc1cn[nH]c1)Nc1ccc(NS(=O)(=O)Cc2ccccc2Cl)cc1 [C-(2-Chloro-phenyl)-N-{4-[3-(1H-pyrazol-4-ylmethyl)-ureido]-phenyl}-methanesulfonamide]
- EC50 (Table B-4): < 100 nM

SMILES: O=C(NCc1ccncc1)Nc1ccc(NS(=O)(=O)Cc2ccccc2F)cc1 [C-(2-Fluoro-phenyl)-N-[4-(3-pyridin-4-ylmethyl-ureido)-phenyl]-methanesulfonamide]
- EC50 (Table B-6): < 100 nM

SMILES: COc1ccccc1CS(=O)(=O)Nc1ccc(NC(=O)NCc2ccncc2)cc1 [C-(2-Methoxy-phenyl)-N-[4-(3-pyridin-4-ylmethyl-ureido)-phenyl]-methanesulfonamide]
- EC50 (Table B-6): 100 to 2000 nM

SMILES: O=C(NCc1cn[nH]c1)Nc1ccc(NS(=O)(=O)Cc2ccc(Cl)c(Cl)c2)cc1 [C-(3,4-Dichloro-phenyl)-N-{4-[3-(1H-pyrazol-4-ylmethyl)-ureido]-phenyl}-methanesulfonamide]
- EC50 (Table B-4): < 100 nM

SMILES: O=C(NCc1cn[nH]c1)Nc1ccc(NS(=O)(=O)Cc2cccc(Cl)c2)cc1 [C-(3-Chloro-phenyl)-N-{4-[3-(1H-pyrazol-4-ylmethyl)-ureido]-phenyl}-methanesulfonamide]
- EC50 (Table B-4): < 100 nM

SMILES: O=C(NCc1ccncc1)Nc1ccc(NS(=O)(=O)Cc2cccc(F)c2)cc1 [C-(3-Fluoro-phenyl)-N-[4-(3-pyridin-4-ylmethyl-ureido)-phenyl]-methanesulfonamide]
- EC50 (Table B-6): < 100 nM

SMILES: COc1cccc(CS(=O)(=O)Nc2ccc(NC(=O)NCc3ccncc3)cc2)c1 [C-(3-Methoxy-phenyl)-N-[4-(3-pyridin-4-ylmethyl-ureido)-phenyl]-methanesulfonamide]
- EC50 (Table B-6): < 100 nM

SMILES: O=C(NCc1ccncc1)Nc1ccc(NS(=O)(=O)Cc2ccc(Br)cc2)cc1 [C-(4-Bromo-phenyl)-N-[4-(3-pyridin-4-ylmethyl-ureido)-phenyl]-methanesulfonamide]
- EC50 (Table B-6): < 100 nM

Continued, values first:

- EC50 (Table B-4): < 100 nM
SMILES: O=C(NCc1cn[nH]c1)Nc1ccc(NS(=O)(=O)Cc2ccc(Cl)cc2)cc1 [C-(4-Chloro-phenyl)-N-{4-[3-(1H-pyrazol-4-ylmethyl)-ureido]-phenyl}-methanesulfonamide]

- EC50 (Table B-6): 100 to 2000 nM
SMILES: N#Cc1ccc(CS(=O)(=O)Nc2ccc(NC(=O)NCc3ccncc3)cc2)cc1 [C-(4-Cyano-phenyl)-N-[4-(3-pyridin-4-ylmethyl-ureido)-phenyl]-methanesulfonamide]

- EC50 (Table B-6): < 100 nM
SMILES: O=C(NCc1ccncc1)Nc1ccc(NS(=O)(=O)Cc2ccc(C3CC3)cc2)cc1 [C-(4-Cyclopropyl-phenyl)-N-[4-(3-pyridin-4-ylmethyl-ureido)-phenyl]-methanesulfonamide]

- EC50 (Table B-6): < 100 nM
SMILES: COc1ccc(CS(=O)(=O)Nc2ccc(NC(=O)NCc3ccncc3)cc2)cc1 [C-(4-Methoxy-phenyl)-N-[4-(3-pyridin-4-ylmethyl-ureido)-phenyl]-methanesulfonamide]

- EC50 (Table B-6): < 100 nM
SMILES: O=C(NCc1ccncc1)Nc1ccc(NS(=O)(=O)Cc2ccc(-c3ccccc3)cc2)cc1 [C-Biphenyl-4-yl-N-[4-(3-pyridin-4-ylmethyl-ureido)-phenyl]-methanesulfonamide]

- EC50 (Table B-2): > 20000 nM
SMILES: CCOC(=O)c1ccccc1NC(=O)NCc1ccncc1 [Ethyl 2-(3-(pyridin-4-ylmethyl)ureido)benzoate]

- EC50 (Table B-2): 5000 to 20000 nM
SMILES: CCOC(=O)c1cccc(NC(=O)NCc2ccncc2)c1 [Ethyl 3-(3-(pyridin-4-ylmethyl)ureido)benzoate]

- EC50 (Table B-3): > 20000 nM
SMILES: CCOC(=O)c1ccc(NC(=O)NCC2CCNc3ccccc32)cc1 (stereo not shown) [Ethyl 4-(3-((1,2,3,4-tetrahydroquinolin-4-yl)methyl)ureido)benzoate]

- EC50 (Table B-1): > 20000 nM
SMILES: CCOC(=O)c1ccc(NC(=O)NCc2cn(Cc3ccc(OC)cc3)nn2)cc1 [Ethyl 4-(3-((1-(4-methoxybenzyl)-1H-1,2,3-triazol-4-yl)methyl)ureido)benzoate]

- EC50 (Table B-1): > 20000 nM
SMILES: CCOC(=O)c1ccc(NC(=O)NCc2cn(C)cn2)cc1 [Ethyl 4-(3-((1-methyl-1H-imidazol-4-yl)methyl)ureido)benzoate]

- EC50 (Table B-1): > 20000 nM
SMILES: CCOC(=O)c1ccc(NC(=O)NCc2cncn2C)cc1 [Ethyl 4-(3-((1-methyl-1H-imidazol-5-yl)methyl)ureido)benzoate]

- EC50 (Table B-1): > 20000 nM
SMILES: CCOC(=O)c1ccc(NC(=O)NCc2cnn(C)c2)cc1 [Ethyl 4-(3-((1-methyl-1H-pyrazol-4-yl)methyl)ureido)benzoate]

- EC50 (Table B-1): > 20000 nM
SMILES: CCOC(=O)c1ccc(NC(=O)NCc2ccnn2C)cc1 [Ethyl 4-(3-((1-methyl-1H-pyrazol-5-yl)methyl)ureido)benzoate]

- EC50 (Table B-1): > 20000 nM
SMILES: CCOC(=O)c1ccc(NC(=O)NCc2c[nH]nn2)cc1 [Ethyl 4-(3-((1H-1,2,3-triazol-4-yl)methyl)ureido)benzoate]

- EC50 (Table B-1): > 20000 nM
SMILES: CCOC(=O)c1ccc(NC(=O)NCc2c[nH]cn2)cc1 [Ethyl 4-(3-((1H-imidazol-4-yl)methyl)ureido)benzoate]

- EC50 (Table B-1): > 20000 nM
SMILES: CCOC(=O)c1ccc(NC(=O)NCc2cnc[nH]2)cc1 [Ethyl 4-(3-((1H-imidazol-5-yl)methyl)ureido)benzoate]

- EC50 (Table B-1): > 20000 nM
SMILES: CCOC(=O)c1ccc(NC(=O)NCc2cc[nH]n2)cc1 [Ethyl 4-(3-((1H-pyrazol-3-yl)methyl)ureido)benzoate]

- EC50 (Table B-1): 100 to 2000 nM
SMILES: CCOC(=O)c1ccc(NC(=O)NCc2cn[nH]c2)cc1 [Ethyl 4-(3-((1H-pyrazol-4-yl)methyl)ureido)benzoate]

- EC50 (Table B-2): > 20000 nM
SMILES: CCOC(=O)c1ccc(NC(=O)NCc2ccnc(N)c2)cc1 [Ethyl 4-(3-((2-aminopyridin-4-yl)methyl)ureido)benzoate]
